Earlier results as cited in patent US20050065131A1, “2-alkylidene-19-nor-vitamin D derivatives for enhancement of peak bone mass in adolescence” (Pfizer Inc, priority 2003, published 2005).

System: Bone Calcium Mobilization
Details: at both dose levels (130 and 260 pmol/day), 7 days

For C=C1[C@H](O)CC(=C/C=C2\CCC[C@]3(C)[C@@H]([C@H](C)CCCC(C)(C)O)CC[C@@H]23)C[C@H]1O [2-Methylene-19-Nor-1,25-(OH)2D3, 1α,25-dihydroxy-2-methylene-19-nor-vitamin D3], the “bone calcium mobilization, result in words” value is listed as “extremely strong”.
